Molecular target: T1, phenylalanine hydroxylase (Rattus norvegicus, UniProt P04176)
T1 sequence (P04176 2-453): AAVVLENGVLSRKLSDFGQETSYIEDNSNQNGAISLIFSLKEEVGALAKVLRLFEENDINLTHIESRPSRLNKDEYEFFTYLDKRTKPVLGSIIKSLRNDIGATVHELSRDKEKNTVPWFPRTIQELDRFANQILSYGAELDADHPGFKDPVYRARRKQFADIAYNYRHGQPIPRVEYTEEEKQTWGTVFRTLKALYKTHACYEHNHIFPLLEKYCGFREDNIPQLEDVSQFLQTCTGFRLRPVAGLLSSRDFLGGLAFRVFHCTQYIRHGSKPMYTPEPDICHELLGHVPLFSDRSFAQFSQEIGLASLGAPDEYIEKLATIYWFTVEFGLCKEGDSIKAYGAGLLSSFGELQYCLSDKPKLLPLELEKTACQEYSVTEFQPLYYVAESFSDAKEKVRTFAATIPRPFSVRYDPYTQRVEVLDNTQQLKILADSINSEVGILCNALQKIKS
Experiment: recombinant enzyme activity, HPLC detection of tyrosine
Assay type: biochemical

c1cnc2c(c1)ccc1cccnc12 [1,10-phenanthroline]
recombinant enzyme activity, HPLC detection of tyrosine: 0.01 mM

Source: paper PMC2847825 (Biological chemistry, 2009)
